Tests used:
[1] = biological target: JAK1 (Homo sapiens (Human), UniProt P23458); assay: Jak Biochemical HTRF Assay, JAK1; conditions: HTRF biochemical assay, GST-tagged catalytic domain; top concentration tested […]; read-out: JAK1 IC50
Excerpt: (§1) Jak Biochemical HTRF Assay Protocol
(§2) Subsequent reagent additions employed an Agilent Bravo.

[2] = biological target: JAK2 (Homo sapiens (Human), UniProt O60674); assay: Jak Biochemical HTRF Assay, JAK2; conditions: HTRF biochemical assay, GST-tagged catalytic domain; top concentration tested […]
Sequence of JAK2 (O60674 849-1124): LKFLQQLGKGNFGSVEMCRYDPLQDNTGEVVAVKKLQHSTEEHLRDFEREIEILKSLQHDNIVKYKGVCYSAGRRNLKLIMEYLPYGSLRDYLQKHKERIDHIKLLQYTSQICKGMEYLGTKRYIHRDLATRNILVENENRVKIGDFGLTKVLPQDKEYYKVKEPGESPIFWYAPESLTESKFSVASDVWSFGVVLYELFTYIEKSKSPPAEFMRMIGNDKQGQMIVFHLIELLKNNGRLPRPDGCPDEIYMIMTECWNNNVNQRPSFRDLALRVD
Excerpt: as §1, §2

Sequence of JAK1 (P23458 875-1153): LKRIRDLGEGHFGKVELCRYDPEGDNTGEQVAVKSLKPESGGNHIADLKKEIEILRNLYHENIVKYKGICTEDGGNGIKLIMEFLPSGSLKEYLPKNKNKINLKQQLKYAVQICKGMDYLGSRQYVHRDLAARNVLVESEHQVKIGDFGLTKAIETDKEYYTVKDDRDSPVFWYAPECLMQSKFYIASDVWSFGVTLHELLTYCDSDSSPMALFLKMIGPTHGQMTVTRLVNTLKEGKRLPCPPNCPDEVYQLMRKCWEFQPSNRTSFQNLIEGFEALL

Structure (SMILES) | IC50 [1] | IC50 [2]
Cc1ccccc1-c1cccc(Nc2nn(C3(CC#N)CCN(C(=O)OC(C)(C)C)CC3)cc2C(N)=O)c1 [Example 15-7, tert-butyl 4-{4-carbamoyl-3-[(2′-methylbiphenyl-3-yl)amino]-1H-pyrazol-1-yl}-4-(cyanomethyl)piperidine-1-carboxylate] | 127 nM | 1480 nM
CC(C)(C)OC(=O)N1CCC(CC#N)(n2cc(C(N)=O)c(Nc3cccc(-c4cccc(Cl)c4)c3)n2)CC1 [Example 15-8, tert-butyl 4-{4-carbamoyl-3-[(3′-chlorobiphenyl-3-yl)amino]-1H-pyrazol-1-yl}-4-(cyanomethyl)piperidine-1-carboxylate] | 161 nM | 1480 nM
CC(C)(C)OC(=O)N1CCC(CC#N)(n2cc(C(N)=O)c(Nc3cccc(-c4ccc5ccccc5c4)c3)n2)CC1 [Example 15-9, tert-butyl 4-{4-carbamoyl-3-[(3-naphthalen-2-ylphenyl)amino]-1H-pyrazol-1-yl}-4-(cyanomethyl)piperidine-1-carboxylate] | 644 nM | 1480 nM
CC(C)(C)OC(=O)N1CCC(CC#N)(n2cc(C(N)=O)c(Nc3cccc(-c4ccccc4F)c3)n2)CC1 [Example 15-10, tert-butyl 4-{4-carbamoyl-3-[(2′-fluorobiphenyl-3-yl)amino]-1H-pyrazol-1-yl}-4-(cyanomethyl)piperidine-1-carboxylate] | 31 nM | 841 nM
CC(C)(C)OC(=O)N1CCC(CC#N)(n2cc(C(N)=O)c(Nc3cccc(-c4ccccc4O)c3)n2)CC1 [Example 15-11, tert-butyl 4-{4-carbamoyl-3-[(2′-hydroxybiphenyl-3-yl)amino]-1H-pyrazol-1-yl}-4-(cyanomethyl)piperidine-1-carboxylate] | 13 nM | 182 nM
CC(C)(C)OC(=O)N1CCC(CC#N)(n2cc(C(N)=O)c(Nc3ccc(CC(=O)O)cc3)n2)CC1 [Example 18, [4-({1-[1-(tert-Butoxycarbonyl)-4-(cyanomethyl)piperidin-4-yl]-4-carbamoyl-1H-pyrazol-3-yl}amino)phenyl]acetic acid] | 0.1 nM | 10 nM
N#CCC1(n2cc(C(N)=O)c(Nc3ccccc3)n2)CN(CC(F)(F)F)C1 [Example 19, 1-[3-(Cyanomethyl)-1-(2,2,2-trifluoroethyl)azetidin-3-yl]-3-(phenylamino)-1H-pyrazole-4-carboxamide] | 162 nM | 870 nM
CN1CC(CC#N)(n2cc(C(N)=O)c(Nc3ccccc3)n2)C1 [Example 20, 1-[3-(Cyanomethyl)-1-methylazetidin-3-yl]-3-(phenylamino)-1H-pyrazole-4-carboxamide] | 358 nM | 1480 nM
N#CCC1(n2cc(C(N)=O)c(Nc3ccccc3)n2)CCN(Cc2ccc(-c3ccccc3)cc2)CC1 [Example 21-1, 1-[1-(Biphenyl-4-ylmethyl)-4-(cyanomethyl)piperidin-4-yl]-3-(phenylamino)-1H-pyrazole-4-carboxamide] | 6 nM | 46 nM
N#CCC1(n2cc(C(N)=O)c(Nc3ccccc3)n2)CCN(Cc2cccnc2)CC1 [Example 21-2, 1-[4-(cyanomethyl)-1-(pyridin-3-ylmethyl)piperidin-4-yl]-3-(phenylamino)-1H-pyrazole-4-carboxamide] | 3 nM | 11 nM
N#CCC1(n2cc(C(N)=O)c(Nc3ccccc3)n2)CCN(Cc2ccc(C#N)cc2)CC1 [Example 21-4, 1-[1-(4-cyanobenzyl)-4-(cyanomethyl)piperidin-4-yl]-3-(phenylamino)-1H-pyrazole-4-carboxamide] | 29 nM | 243 nM
N#CCCCN1CCC(CC#N)(n2cc(C(N)=O)c(Nc3ccccc3)n2)CC1 [Example 21-5, 1-[4-(cyanomethyl)-1-(3-cyanopropyl)piperidin-4-yl]-3-(phenylamino)-1H-pyrazole-4-carboxamide] | 46 nM | 314 nM
N#CCC1(n2cc(C(N)=O)c(Nc3ccccc3)n2)CCN(Cc2ccccc2Cl)CC1 [Example 21-6, 1-[1-(2-chlorobenzyl)-4-(cyanomethyl)piperidin-4-yl]-3-(phenylamino)-1H-pyrazole-4-carboxamide] | 3 nM | 55 nM
Cc1ccc(CN2CCC(CC#N)(n3cc(C(N)=O)c(Nc4ccccc4)n3)CC2)cc1 [Example 21-7, 1-[4-(cyanomethyl)-1-(4-methylbenzyl)piperidin-4-yl]-3-(phenylamino)-1H-pyrazole-4-carboxamide] | 11 nM | 135 nM
N#CCC1(n2cc(C(N)=O)c(Nc3ccccc3)n2)CCN(Cc2cccc3ccccc23)CC1 [Example 21-8, 1-[4-(cyanomethyl)-1-(naphthalene-1-ylmethyl)piperidin-4-yl]-3-(phenylamino)-1H-pyrazole-4-carboxamide] | 89 nM | 1300 nM
N#CCC1(n2cc(C(N)=O)c(Nc3ccccc3)n2)CCN(CC2CCCCC2)CC1 [Example 21-9, 1-[4-(cyanomethyl)-1-(cyclohexylmethyl)piperidin-4-yl]-3-(phenylamino)-1H-pyrazole-4-carboxamide] | 15 nM | 319 nM

Structure (SMILES) | IC50 [1] | IC50 [2]
N#CCC1(n2cc(C(N)=O)c(Nc3ccccc3)n2)CCN(Cc2ccc3c(c2)OCO3)CC1 [Example 21-10, 1-[1-(1,3-benzodioxol-5-ylmethyl)-4-(cyanomethyl)piperidin-4-yl]-3-(phenylamino)-1H-pyrazole-4-carboxamide] | 8 nM | 78 nM
N#CCC1(n2cc(C(N)=O)c(Nc3ccccc3)n2)CCN(Cc2cccc(O)c2)CC1 [Example 21-11, 1-[4-(cyanomethyl)-1-(3-hydroxybenzyl)piperidin-4-yl]-3-(phenylamino)-1H-pyrazole-4-carboxamide] | 0.3 nM | 6 nM
CC(=O)Nc1ccc(CN2CCC(CC#N)(n3cc(C(N)=O)c(Nc4ccccc4)n3)CC2)cc1 [Example 21-12, 1-{1-[4-(acetylamino)benzyl]-4-(cyanomethyl)piperidin-4-yl}-3-(phenylamino)-1H-pyrazole-4-carboxamide] | 7 nM | 128 nM
COc1ccc2cc(CN3CCC(CC#N)(n4cc(C(N)=O)c(Nc5ccccc5)n4)CC3)ccc2c1 [Example 21-13, 1-{4-(cyanomethyl)-1-[(6-methoxynaphthalen-2-yl)methyl]piperidin-4-yl}-3-(phenylamino)-1H-pyrazole-4-carboxamide] | 24 nM | 297 nM
N#CCC1(n2cc(C(N)=O)c(Nc3ccccc3)n2)CCN(Cc2c(Cl)cccc2Cl)CC1 [Example 21-14, 1-[4-(cyanomethyl)-1-(2,6-dichlorobenzyl)piperidin-4-yl]-3-(phenylamino)-1H-pyrazole-4-carboxamide] | 18 nM | 224 nM
CSCCCN1CCC(CC#N)(n2cc(C(N)=O)c(Nc3ccccc3)n2)CC1 [Example 21-15, 1-{4-(cyanomethyl)-1-[3-(methylsulfanyl)propyl]piperidin-4-yl}-3-(phenylamino)-1H-pyrazole-4-carboxamide] | 12 nM | 242 nM
CCOc1ccccc1CN1CCC(CC#N)(n2cc(C(N)=O)c(Nc3ccccc3)n2)CC1 [Example 21-16, 1-[4-(cyanomethyl)-1-(2-ethoxybenzyl)piperidin-4-yl]-3-(phenylamino)-1H-pyrazole-4-carboxamide] | 69 nM | 842 nM
N#CCC1(n2cc(C(N)=O)c(Nc3ccccc3)n2)CCN(C/C=C/c2ccccc2)CC1 [Example 21-17, 1-{4-(cyanomethyl)-1-[(2E)-3-phenylprop-2-en-1-yl]piperidin-4-yl}-3-(phenylamino)-1H-pyrazole-4-carboxamide] | 19 nM | 208 nM
N#CCC1(n2cc(C(N)=O)c(Nc3ccccc3)n2)CCN(Cc2cccc(F)c2)CC1 [Example 21-18, 1-[4-(cyanomethyl)-1-(3-fluorobenzyl)piperidin-4-yl]-3-(phenylamino)-1H-pyrazole-4-carboxamide] | 2 nM | 73 nM
N#CCC1(n2cc(C(N)=O)c(Nc3ccccc3)n2)CCN(Cc2ccc(C(F)(F)F)cc2)CC1 [Example 21-19, 1-{4-(cyanomethyl)-1-[4-(trifluoromethyl)benzyl]piperidin-4-yl}-3-(phenylamino)-1H-pyrazole-4-carboxamide] | 35 nM | 460 nM
N#CCC1(n2cc(C(N)=O)c(Nc3ccccc3)n2)CCN(Cc2ccc(Cl)cc2F)CC1 [Example 21-21, 1-[1-(4-chloro-2-fluorobenzyl)-4-(cyanomethyl)piperidin-4-yl]-3-(phenylamino)-1H-pyrazole-4-carboxamide] | 3 nM | 44 nM
CCCc1ccc(CN2CCC(CC#N)(n3cc(C(N)=O)c(Nc4ccccc4)n3)CC2)cc1 [Example 21-22, 1-[4-(cyanomethyl)-1-(4-propylbenzyl)piperidin-4-yl]-3-(phenylamino)-1H-pyrazole-4-carboxamide] | 72 nM | 888 nM
N#CCC1(n2cc(C(N)=O)c(Nc3ccccc3)n2)CCN(Cc2c(F)cccc2F)CC1 [Example 21-23, 1-[4-(cyanomethyl)-1-(2,6-difluorobenzyl)piperidin-4-yl]-3-(phenylamino)-1H-pyrazole-4-carboxamide] | 0.8 nM | 13 nM
CC(C)c1ccc(CN2CCC(CC#N)(n3cc(C(N)=O)c(Nc4ccccc4)n3)CC2)cc1 [Example 21-24, 1-{4-(cyanomethyl)-1-[4-(1-methylethyl)benzyl]piperidin-4-yl}-3-(phenylamino)-1H-pyrazole-4-carboxamide] | 120 nM | 1050 nM
N#CCC1(n2cc(C(N)=O)c(Nc3ccccc3)n2)CCN(CC#Cc2ccccc2)CC1 [Example 21-25, 1-[4-(cyanomethyl)-1-(3-phenylprop-2-yn-1-yl)piperidin-4-yl]-3-(phenylamino)-1H-pyrazole-4-carboxamide] | 83 nM | 747 nM
